Measurements from ChEMBL document CHEMBL6120941, “Discovery of SIRT1-Activating Hydrogen Sulfide Donating Derivatives for Efficient Resistant of Myocardial Ischemic Injury” (J Med Chem, 2024).
Each block holds one compound with its values, some of them ahead of it. Active and inactive are the calls of the source. The calls are words filed in the database; no cut-off is given here.

How the values were obtained:
H9c2 [1] = assay: Cardioprotective activity against CoCl2-induced cellular hypoxia injury in rat H9c2 cells assessed as mitochondrial membrane potential at 50 uM incubated for 24 hrs by JC-1 staining based analysis (reference value: 48.08 %); format: functional
H9c2 [2] = assay: Cardioprotective activity against CoCl2-induced cellular hypoxia injury in rat H9c2 cells assessed as cell viability at 5 uM incubated for 24 hrs by CCK-8 assay (reference value: 51.80 +/- 2.58 %); format: functional; settings: read-out: Activity
H9c2 [3] = assay: Cardioprotective activity against CoCl2-induced cellular hypoxia injury in rat H9c2 cells assessed as reduction in apoptosis at 50 uM incubated for 24 hrs by flow cytometry; format: functional, cell-based
Rattus norvegicus [4] = assay: Cardioprotective activity in myocardial ischemia Sprague-Dawley rat model assessed as decrease in ISO-induced ST segment at 50 mg/kg, IG treated for 7 days consecutively followed by ISO administration daily for 2 days consecutively by ECG analysis; format: functional, organism-based; settings: time 9.0 day
Rattus norvegicus [5] = assay: Cardioprotective activity against myocardial ischemia Sprague-Dawley rat model assessed as increase in PGC1-alpha level in myocardial tissue at 50 mg/kg, IG treated for 7 days consecutively followed by ISO administration daily for 2 days consecutively by Western blot analysis; format: functional, organism-based; settings: time 9.0 day
H9c2 [6] = assay: Cardioprotective activity against CoCl2-induced cellular hypoxia injury in rat H9c2 cells assessed as cell viability at 1.25 uM incubated for 24 hrs by CCK-8 assay (reference value: 51.80 +/- 2.58 %); format: functional; settings: read-out: Activity
H9c2 [7] = assay: Cardioprotective activity against CoCl2-induced cellular hypoxia injury in rat H9c2 cells assessed as cell viability at 10 uM incubated for 24 hrs by CCK-8 assay (reference value: 51.80 +/- 2.58 %); format: functional; settings: read-out: Activity
[8] = target: T1, NAD-dependent protein deacetylase sirtuin-1 (Homo sapiens) (UniProt Q96EB6); assay: Activation of SIRT1 (unknown origin) using RHKK-ac-AMC as substrate incubated for 2 hrs by FDL assay relative to control; settings: filed as activator
T1 sequence (whole entry): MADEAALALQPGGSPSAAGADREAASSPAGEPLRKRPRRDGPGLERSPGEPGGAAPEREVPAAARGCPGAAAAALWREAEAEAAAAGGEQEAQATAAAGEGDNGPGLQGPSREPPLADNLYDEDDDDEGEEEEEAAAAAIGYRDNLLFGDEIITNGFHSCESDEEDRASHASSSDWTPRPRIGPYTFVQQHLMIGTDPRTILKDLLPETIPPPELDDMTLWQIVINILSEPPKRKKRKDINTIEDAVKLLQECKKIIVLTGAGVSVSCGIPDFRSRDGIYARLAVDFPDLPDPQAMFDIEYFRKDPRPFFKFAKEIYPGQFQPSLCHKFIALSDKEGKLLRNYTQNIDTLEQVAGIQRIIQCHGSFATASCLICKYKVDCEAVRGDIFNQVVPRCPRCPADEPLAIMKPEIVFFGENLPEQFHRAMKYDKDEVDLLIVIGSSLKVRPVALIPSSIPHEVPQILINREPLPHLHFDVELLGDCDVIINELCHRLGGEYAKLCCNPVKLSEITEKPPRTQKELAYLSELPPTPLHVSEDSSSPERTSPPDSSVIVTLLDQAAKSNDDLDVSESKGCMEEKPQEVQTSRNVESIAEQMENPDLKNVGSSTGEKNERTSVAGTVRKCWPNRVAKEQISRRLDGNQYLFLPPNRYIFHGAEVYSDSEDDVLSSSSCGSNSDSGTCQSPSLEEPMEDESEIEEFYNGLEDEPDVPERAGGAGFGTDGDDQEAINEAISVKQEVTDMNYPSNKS

H9c2 [9] = assay: Cardioprotective activity against CoCl2-induced cellular hypoxia injury in rat H9c2 cells assessed as increase in PGC1-alpha level at 50 uM incubated for 24 hrs by Western blot analysis; format: functional, cell-based
[10] = target: T2, NAD-dependent protein deacetylase sirtuin-1 (Rattus norvegicus) (UniProt A0A0G2JZ79); assay: Activation of SIRT1 in CoCl2-induced cellular hypoxia injury in rat H9c2 cells at 50 uM incubated for 24 hrs by Western blot analysis; format: cell-based; settings: filed as activator
T2 sequence (whole entry): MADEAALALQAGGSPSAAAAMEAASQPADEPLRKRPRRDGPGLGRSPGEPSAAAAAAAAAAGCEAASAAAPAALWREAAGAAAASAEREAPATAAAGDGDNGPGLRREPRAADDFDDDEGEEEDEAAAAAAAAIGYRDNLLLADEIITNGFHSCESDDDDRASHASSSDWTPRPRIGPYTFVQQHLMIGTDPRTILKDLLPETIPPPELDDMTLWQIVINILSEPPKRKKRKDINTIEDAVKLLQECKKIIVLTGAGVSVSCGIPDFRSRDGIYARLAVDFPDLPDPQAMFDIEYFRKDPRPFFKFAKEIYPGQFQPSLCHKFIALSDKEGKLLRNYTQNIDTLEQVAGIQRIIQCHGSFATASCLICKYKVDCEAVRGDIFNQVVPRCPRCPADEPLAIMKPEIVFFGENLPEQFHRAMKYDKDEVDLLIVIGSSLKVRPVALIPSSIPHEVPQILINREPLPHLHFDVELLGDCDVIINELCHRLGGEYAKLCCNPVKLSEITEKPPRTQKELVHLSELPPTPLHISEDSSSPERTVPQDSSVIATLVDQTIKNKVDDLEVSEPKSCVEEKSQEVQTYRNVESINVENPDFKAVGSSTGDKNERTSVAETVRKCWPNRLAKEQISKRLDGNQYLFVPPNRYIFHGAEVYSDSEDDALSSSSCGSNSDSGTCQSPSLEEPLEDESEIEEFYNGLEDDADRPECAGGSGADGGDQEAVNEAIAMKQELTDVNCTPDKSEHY

H9c2 [11] = assay: Inhibition of apoptosis in CoCl2-induced cellular hypoxia injury in rat H9c2 cells assessed as increase in caspase-3 level at 5 to 10 uM incubated for 24 hrs by Western blot analysis; format: functional, cell-based; settings: dose 5-10 µM
Rattus norvegicus [12] = assay: In vivo activation of SIRT1 in myocardial tissue of myocardial ischemia Sprague-Dawley rat model at 50 mg/kg, IG treated for 7 days consecutively followed by ISO administration daily for 2 days consecutively by Western blot analysis; format: functional, organism-based; settings: time 9.0 day
H9c2 [13] = assay: Cardioprotective activity against CoCl2-induced cellular hypoxia injury in rat H9c2 cells assessed as cell viability at 0.625 uM incubated for 24 hrs by CCK-8 assay (reference value: 51.80 +/- 2.58 %); format: functional; settings: read-out: Activity
H9c2 [14] = assay: Cardioprotective activity against CoCl2-induced cellular hypoxia injury in rat H9c2 cells assessed as reduction in necrosis at 50 uM incubated for 24 hrs by flow cytometry; format: functional, cell-based
H9c2 [15] = assay: Cardioprotective activity against CoCl2-induced cellular hypoxia injury in rat H9c2 cells assessed as cell viability at 2.5 uM incubated for 24 hrs by CCK-8 assay (reference value: 51.80 +/- 2.58 %); format: functional; settings: read-out: Activity
H9c2 [16] = assay: Inhibition of apoptosis in CoCl2-induced cellular hypoxia injury in rat H9c2 cells assessed as decrease in Bax level at 5 to 10 uM incubated for 24 hrs by Western blot analysis; format: functional, cell-based; settings: dose 5-10 µM
H9c2 [17] = assay: Inhibition of apoptosis in CoCl2-induced cellular hypoxia injury in rat H9c2 cells assessed as increase in Bcl-2 level at 5 to 10 uM incubated for 24 hrs by Western blot analysis; format: functional, cell-based; settings: dose 5-10 µM
[18] = Induction of H2S release in PBS at pH 7.4 at 100 uM measured upto 60 mins by methylene blue method; format: functional
[19] = Induction of H2S release in PBS at pH 7.4 measured upto 60 mins by methylene blue method; format: functional
H9c2 [20] = assay: Induction of H2S release in rat H9c2 cells incubated for 24 hrs by AzMC probe based analysis; format: functional, cell-based; settings: dose 1.25-10 µM
H9c2 [21] = assay: Cardioprotective activity against CoCl2-induced cellular hypoxia injury in rat H9c2 cells assessed as increase in cell viability at 30 uM incubated for 24 hrs by CCK-8 assay; format: functional, cell-based

Activity [8]: 158%
Compound: Oc1ccc(/C=C/c2cc(O)cc(O)c2)cc1 [RESVERATROL]
Activity (H9c2 [1]): 73.27%
viability at 5 µM (H9c2 [2]): 68.5%
Activity (H9c2 [3]): Active
Activity (Rattus norvegicus [4]): Active
Activity (Rattus norvegicus [5]): Active
viability at 1.25 µM (H9c2 [6]): 58.8%
viability at 10 µM (H9c2 [7]): 76.1%
Activity (H9c2 [9]): Active
Activity [10]: Active
inhibition (H9c2 [11]): Active
Activity (Rattus norvegicus [12]): Active
viability at 0.625 µM (H9c2 [13]): 58.3%
Activity (H9c2 [14]): Active
viability at 2.5 µM (H9c2 [15]): 64.1%
inhibition (H9c2 [16]): Active
inhibition (H9c2 [17]): Active

Compound: CC(C)(O)[C@@H]1CC[C@@](C)([C@H]2CC[C@]3(C)[C@@H]2[C@H](O)C[C@@H]2[C@@]4(C)CC[C@H](OC(=O)CCC(=O)Oc5ccc(-c6nc(=O)ss6)cc5)C(C)(C)[C@@H]4[C@@H](O)C[C@]23C)O1
viability at 5 µM (H9c2 [2]): 89.1%
viability at 1.25 µM (H9c2 [6]): 77.4%
viability at 10 µM (H9c2 [7]): 94.2%
Activity [18]: Active
Activity [19]: 10.5 µM
viability at 0.625 µM (H9c2 [13]): 70.1%
Activity (H9c2 [20]): Dose-dependent-effect
viability at 2.5 µM (H9c2 [15]): 83.7%
Activity (H9c2 [21]): inactive

Compound: C=CCSSCCC(=O)O[C@H]1CC[C@]2(C)[C@H]3C[C@@H](O)[C@@H]4[C@@H]([C@]5(C)CC[C@@H](C(C)(C)O)O5)CC[C@@]4(C)[C@]3(C)C[C@H](O)[C@H]2C1(C)C
viability at 5 µM (H9c2 [2]): 89.1%
viability at 1.25 µM (H9c2 [6]): 74.2%
viability at 10 µM (H9c2 [7]): 95.3%
Activity [18]: Active
Activity [19]: 17.4 µM
viability at 0.625 µM (H9c2 [13]): 74.7%
Activity (H9c2 [20]): Dose-dependent-effect
viability at 2.5 µM (H9c2 [15]): 79.1%
Activity (H9c2 [21]): inactive

Compound: CC(C)(O)[C@H]1CC[C@@](C)([C@H]2CC[C@]3(C)[C@@H]2[C@H](O)C[C@@H]2[C@@]4(C)CC[C@H](OC(=O)CCC(=O)Oc5ccc(-c6nc(=O)ss6)cc5)C(C)(C)[C@@H]4CC[C@]23C)O1
viability at 5 µM (H9c2 [2]): 86.8%
viability at 1.25 µM (H9c2 [6]): 82%
viability at 10 µM (H9c2 [7]): 91.4%
Activity [18]: Active
Activity [19]: 7 µM
viability at 0.625 µM (H9c2 [13]): 76.4%
Activity (H9c2 [20]): Dose-dependent-effect
viability at 2.5 µM (H9c2 [15]): 84.7%
Activity (H9c2 [21]): inactive

Compound: CC(C)(O)[C@@H]1CC[C@@](C)([C@H]2CC[C@]3(C)[C@@H]2[C@H](O)C[C@@H]2[C@@]4(C)CC[C@H](OC(=O)CCC(=O)Oc5ccc(-c6nc(=O)ss6)cc5)C(C)(C)[C@@H]4CC[C@]23C)O1
viability at 5 µM (H9c2 [2]): 91%
viability at 1.25 µM (H9c2 [6]): 81.6%
viability at 10 µM (H9c2 [7]): 92.2%
Activity [18]: Active
Activity [19]: 10 µM
viability at 0.625 µM (H9c2 [13]): 73.5%
Activity (H9c2 [20]): Dose-dependent-effect
viability at 2.5 µM (H9c2 [15]): 87.7%
Activity (H9c2 [21]): inactive

Activity [8]: 123%
Compound: CC(C)(O)[C@@H]1CC[C@@](C)([C@H]2CC[C@]3(C)[C@@H]2[C@H](O)C[C@@H]2[C@@]4(C)CC[C@H](O)C(C)(C)[C@@H]4CC[C@]23C)O1
viability at 5 µM (H9c2 [2]): 79.1%
viability at 1.25 µM (H9c2 [6]): 72.6%
viability at 10 µM (H9c2 [7]): 81.2%
viability at 0.625 µM (H9c2 [13]): 70.6%
viability at 2.5 µM (H9c2 [15]): 74.8%
Activity (H9c2 [21]): inactive
